Measured values taken from publication PMC10982999, “Structure-Guided Design and Optimization of Covalent VHL-Targeted Sulfonyl Fluoride PROTACs” (Journal of Medicinal Chemistry, 2024).

Molecular target: T1, VCB and FAM-conjugated HIF1α-derived peptide interaction (Homo sapiens, UniProt P40337)
T1 construct: human VHL (UniPort entry P40337, residues 1 -213); 6xHis followed by TEV site (N, cleaved yes); made in house; host or cells: E. coli One Shot BL21(DE3)
Assay: Competitive fluorescence polarization (FP) assay, VCB / FAM-conjugated HIF1α-derived peptide
Assay type: binding
Details: 2 h incubation between VCB and compound; read-out: apparent IC50 (FP)
Protocol: We next focused on developing a second generation covalent VHL binder with enhanced potency and occupancy.
Figure 2 (A) Structure of VHL-SF2. […] (E) Competition pull-down assay from live cells between VHL-SF2-Biotin and VHL-SF2. HEK293T cells were pretreated with DMSO or varying concentrations of VHL-SF2 for 2 h at 37 °C. The cells were lysed and treated with DMSO or VHL-SF2-Biotin (50 μM) for 2 h at room temperature. A pull-down with streptavidin beads was conducted, after which the protein was resolved on SDS/PAGE. VHL and loading control GAPDH levels were visualized by Western blotting.
Figure S3. (A) Gel-based VHL labelling of VHL-SF1-Biotin, and (B) VHL-SF2-Biotin. VCB protein was pre-treated with DMSO, VHL-SF1-Biotin or VHL-SF2-Biotin for 2 h at room temperature, after which protein was resolved on SDS -PAGE and visualised by Neutravidin […]
Figure S4. Dose-response of VHL-SF1 following a 2 h pre-incubation in the presence of VCB and FAM-conjugated HIF1α-derived peptide, assessed by fluorescence polarization. Data […]
Figure S5. (A) VCB was incubated with DMSO for 24 h and subjected to intact-protein LC-MS (VHL: 24784 Da). […]
Fluorescence polarization assay protocol […]
well plate and the plate was shaken for 1 min, before reading fluorescence polarization on a Perkin Elmer Envision 2101 plate reader (excitation 486 nm, emission 535 nm). […]

Cc1cc([C@H](C(=O)N2C[C@H](S(=O)(=O)F)C[C@H]2C(=O)N[C@@H](CC(=O)OC(C)(C)C)c2ccc(-c3scnc3C)cc2)C(C)C)on1 [VHL-SF2, tert-Butyl (S)-3-((2S,4R)-4-(Fluorosulfonyl)-1-((R)-3-methyl-2-(3-methylisoxazol-5-yl)butanoyl)pyrr-olidine-2-carboxamido)-3-(4-(4-methylthiazol-5-yl)phenyl)propanoate]
IC50: 35 µM
